Experimental data as given in ChEMBL document CHEMBL1135873, “Neuroprotection against ischemic brain injury conferred by a novel nitrate ester” (Bioorg Med Chem Lett, 2002).

Organism: Rattus norvegicus
Test: Effective concentration for relaxation of isolated rat aortic strips, submaximally contracted with phenylephrine at 0.1 uM was determined
Format: functional
Conditions: Aorta

SMILES: O=[N+]([O-])OCC(CO[N+](=O)[O-])O[N+](=O)[O-] [NITROGLYCERIN]
- EC50: 1900 nM
